Values of other authors as cited in patent US12004493B2, “Late-onset Alzheimer's disease animal model and uses thereof” (The Board of Regents of the University of Oklahoma, priority 2018, dated 2024).

Test system: early-phase AD patients
Details: DAO inhibitor

O=C([O-])c1ccccc1.[Na+] [Sodium benzoate]
cognitive and overall functions: improved cognitive and overall functions
